Measured values published in patent publication US20050153412A1, “Aldehyde dehydrogenase II” (priority 2002, published 2005).
Where two headings read alike, the source gives them in different places.

Experiments:
Format in all cases: biochemical, Gluconobacter oxydans DSM No. 4025 (FERM BP-3812)
[1] = molecular target: T1, SNDH II (aldehyde dehydrogenase) (Ketogulonicigenium vulgare, UniProt Q402A8); assay: Effect of inhibitors and metals on L-sorbosone dehydrogenase activity, photometrical DCIP assay
Description: (§1) The reaction mixture consisted of 0.1 mM DCIP, 1.0 mM PMS, 50 mM potassium phosphate buffer (pH 7.0), 1.0 μM PQQ, 2 to 100 mM substrate (L-sorbosone, D-glucosone, D-glucose, etc.) and enzyme solution in a final volume of 100 μl water, said reaction mixture was prepared just before the assay. The reaction was started at 25° C. with L-sorbosone, and the enzyme activity was measured as the initial reduction rate of DCIP at 600 nm. One unit of the enzyme activity was defined as the amount of the enzyme catalyzing the reduction of 1 μmol DCIP per minute. The extinction coefficient of DCIP at pH 7.0 was taken as 14.2 mM^−1. A reference cuvette contained all the above constituents except for L-sorbosone.
The effects of metal ions and inhibitors on the L-sorbosone dehydrogenase activity of the enzyme were examined by measuring the activity using the same assay method as described under 1b) above. Each compound solution was stirred into the basal reaction mixture and the reaction was started with the addition of the enzyme.
Each compound was added to the reaction mixture at a concentration of 1.0 mM, with the exception that the concentrations of EDTA, NaN3 and monoiodoacetate were 5.0 mM.

[2] = molecular target: T1, SNDH II (aldehyde dehydrogenase); assay: Substrate specificity of the purified enzyme, photometrical DCIP assay; conditions: for Relative activity compared with that for L-sorbosone (2 mM): at both pH 7.5 and 9.0, D-glucosone 2 mM, others 100 mM; for Product (deduced product of the oxidation of the substrate): substrates of Table 1A; for Relative activity (%): L-sorbosone and D-glucosone 2 mM, other substrates 100 mM, L-sorbosone = 100
Description: as §1
a) The substrate specificity of the enzyme was determined using the same enzyme assay method as described under 1b) above with the exception of using 100 mM potassium phosphate (pH 7.5) or 100 mM Tris-HCl (pH 9.0) as buffer. The relative activity of SNDH II for D-glucosone (2 mM), D-glucose (100 mM), and D-xylose (100 mM) was higher than that for L-sorbosone (2 mM) at both pH 7.5 and 9.0. However, the relative activity for L-sorbose (100 mM), D-sorbitol (100 mM), and L-gulono-γ-lactone (100 mM) was lower than 1% of that for L-sorbosone at both pH 7.5 and 9.0.

[3] = molecular target: T1, SNDH II (aldehyde dehydrogenase); assay: Electron acceptor suitability for conversion of L-sorbosone; conditions: conversion of L-sorbosone to vitamin C and/or 2-KGA
Excerpt: This was affirmed by the failure of the enzyme to convert L-sorbosone to vitamin C and/or 2-KGA using oxygen as a possible electron acceptor. Furthermore, no oxygen consumption was detected in the reaction mixture as detected with a dissolved oxygen probe. […] However, other conventional electron acceptors can be utilized in conjunction with the enzyme of this invention. Preferred electron acceptors are phenazine methosulfate (PMS), 2,6-dichlorophenolindophenol (DCIP), ferricyanide and cytochrome c. There is no minimum amount of electron acceptors which must be present for at least some of the aldehyde substrate to be converted to its corresponding acid. However, the amount of substrate which can be oxidized depends on the amount of the particular electron acceptor and its electron accepting characteristics.

[4] = compound at 1.0 mM, None = 100.0
[5] = pH 7.5, 100 mM potassium phosphate

T1 sequence (Q402A8 entry or part of it): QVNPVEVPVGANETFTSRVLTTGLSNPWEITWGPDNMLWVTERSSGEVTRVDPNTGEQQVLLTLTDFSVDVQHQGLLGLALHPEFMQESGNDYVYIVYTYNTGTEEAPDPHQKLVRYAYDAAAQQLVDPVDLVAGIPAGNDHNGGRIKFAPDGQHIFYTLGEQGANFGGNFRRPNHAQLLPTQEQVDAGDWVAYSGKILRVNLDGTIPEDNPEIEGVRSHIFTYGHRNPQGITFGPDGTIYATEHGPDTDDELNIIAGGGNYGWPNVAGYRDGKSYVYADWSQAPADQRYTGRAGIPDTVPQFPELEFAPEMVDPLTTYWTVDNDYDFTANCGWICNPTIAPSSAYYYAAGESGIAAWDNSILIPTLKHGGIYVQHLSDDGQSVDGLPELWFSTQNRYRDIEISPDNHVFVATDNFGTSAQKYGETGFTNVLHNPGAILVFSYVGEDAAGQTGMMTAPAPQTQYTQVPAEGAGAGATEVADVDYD

O.O.[Ca+2].[Cl-].[Cl-] [CaCl2.2H2O]
Relative activity (%) [1, 4]: 94.7%

O.O.O.O.O.O.[Cl-].[Cl-].[Co+2] [CoCl2.6H2O]
Relative activity (%) [1, 4]: 60.8% | Effect on the enzyme activity ([1]; metal ions, 1.0 mM): inhibited

O=S(=O)([O-])[O-].[Cu+2] [CuSO4]
Relative activity (%) [1, 4]: <1% | Effect on the enzyme activity ([1]; metal ions, 1.0 mM): inhibited

O=C[C@H](O)[C@@H](O)[C@H](O)[C@H](O)CO [D-Glucose]
Relative activity compared with that for L-sorbosone (2 mM) [2]: higher | Product (deduced product of the oxidation of the substrate) [2]: D-Gluconate

O=CC(=O)[C@@H](O)[C@H](O)[C@H](O)CO [D-Glucosone]
Relative activity compared with that for L-sorbosone (2 mM) [2]: higher | Relative activity (%) [2, 5]: 483% | Product (deduced product of the oxidation of the substrate) [2]: D-iso-Ascorbic acid/2-Keto-D-gluconate

OC[C@@H](O)[C@@H](O)[C@H](O)[C@@H](O)CO [D-Sorbitol]
Relative activity (%) [2, 5]: <1% | Relative activity (%) ([2]; pH 9.0, 100 mM Tris-HCl): <1%

O=C[C@H](O)[C@@H](O)[C@H](O)CO [D-Xylose]
Relative activity compared with that for L-sorbosone (2 mM) [2]: higher | Product (deduced product of the oxidation of the substrate) [2]: D-Xylonic acid

O=C(O)CN(CCN(CC(=O)O)CC(=O)O)CC(=O)O [EDTA]
Relative activity (%) [1]: 97.9%

O=S(=O)([O-])[O-].O=S(=O)([O-])[O-].O=S(=O)([O-])[O-].[Fe+3].[Fe+3] [Fe2(SO4)3.xH2O]
Relative activity (%) [1, 4]: 73.2% | Effect on the enzyme activity ([1]; metal ions, 1.0 mM): inhibited

O=C1O[C@H]([C@@H](O)CO)[C@H](O)[C@@H]1O [L-Gulono-γ-lactone]
Relative activity (%) [2, 5]: <1% | Relative activity (%) ([2]; pH 9.0, 100 mM Tris-HCl): <1%

O=C(CO)[C@@H](O)[C@H](O)[C@@H](O)CO [L-Sorbose]
Relative activity (%) [2, 5]: <1% | Relative activity (%) ([2]; pH 9.0, 100 mM Tris-HCl): <1%

O=CC(=O)[C@@H](O)[C@H](O)[C@@H](O)CO [L-Sorbosone]
Relative activity (%) [2, 5]: 100% | Relative activity (%) ([2]; pH 9.0, 100 mM Tris-HCl): 100% | Product (deduced product of the oxidation of the substrate) [2]: Vitamin C/2-KGA

[Cl-].[Cl-].[Mg+2] [MgCl2]
Relative activity (%) [1, 4]: 88.5%

O=C(O)CI [Monoiodoacetate]
Effect on the enzyme activity [1]: strongly inhibited | Relative activity (%) [1]: 34.7%

NC(=O)c1ccc[n+]([C@H]2O[C@@H](COP(=O)([O-])OP(=O)(O)OC[C@H]3O[C@@H](n4cnc5c(N)ncnc54)[C@H](OP(=O)(O)O)[C@@H]3O)[C@H](O)[C@@H]2O)c1 [NADP]
Suitability as electron acceptor [3]: not suitable electron acceptors

NC(=O)c1ccc[n+]([C@@H]2O[C@H](COP(=O)([O-])OP(=O)(O)OC[C@H]3O[C@@H](n4cnc5c(N)ncnc54)[C@H](O)[C@@H]3O)[C@@H](O)[C@H]2O)c1 [NAD]
Suitability as electron acceptor [3]: not suitable electron acceptors

[N-]=[N+]=[N-].[Na+] [NaN3]
Relative activity (%) ([1]; compound at 5.0 mM, None = 100.0): 98.4%

O.O.O.O.O.O.O=S(=O)([O-])[O-].[Ni+2] [NiSO4.6H2O]
Relative activity (%) [1, 4]: 82.9% | Effect on the enzyme activity ([1]; metal ions, 1.0 mM): inhibited

[Cl][Ti]([Cl])([Cl])[Cl] [TiCl4]
Relative activity (%) [1, 4]: 95.9%

[Cl-].[Cl-].[Zn+2] [ZnCl2]
Relative activity (%) [1, 4]: 64.9% | Effect on the enzyme activity ([1]; metal ions, 1.0 mM): inhibited

O=O [oxygen]
Suitability as electron acceptor [3]: does not work
